These are literature values, as cited in paper PMC11047177 (ESMO Open, 2024).

Where two headings read alike, the source gives them in different places.

For data set [1] the following is noted: cited from earlier work.
The conditions of data set [2]: cited from earlier work. The source holds these as a separate data set.
Setting [3] is: patients with advanced solid tumors.
Where [4] appears, read: advanced solid tumors, non-Hodgkin's lymphoma, or lower-risk myelodysplastic syndrome.

Turning to `CC(=O)N1CCC(Nc2cc(C(=O)NC[C@H](O)CN3CCc4ccccc4C3)ncn2)CC1` [GSK3326595], the “Preliminary evidence of antitumor activity” value in data set [1] is reported as “patients achieving PRs”. Besides, in data set [1] (setting [3]), the TRAE Anemia is reported as 31%, the TRAE Dysgeusia is reported as 26%, the TRAE Fatigue is given as 39% and the TRAE Nausea is recorded as 31%.
For the compound `Nc1nc2cc(CC[C@H]3C[C@@H](n4ccc5c(N)ncnc54)[C@H](O)[C@@H]3O)ccc2cc1Br` [JNJ-64619178], in data set [2] (setting [4]), the TRAE Fatigue was 32%, the TRAE Nausea is 39% and the TRAE thrombocytopenia was 52%. Also, the “Preliminary evidence of antitumor activity” value in data set [2] is on record as “patients achieving PRs”.
